Experimental data: US9670204B2, “Compounds and pharmaceutical compositions thereof for the treatment of inflammatory disorders” (Galapagos NV, priority 2013, dated 2017)

Key:
[1] = molecular target: T1, hENPP2 (UniProtKB/SwissProt Q13822) (Homo sapiens (Human), UniProt Q13822); experiment: hENPP2 biochemical assay, LPC as substrate; conditions: LPC (palmitoyl 16:0) as substrate
Description: The principle of the assay consists in quantifying the released choline with an enzymatic method using choline oxidase and peroxidase. Choline oxydation by choline oxydase releases betaine and peroxide. The latter is quantified in presence of HRP that converts the peroxide detection agent TOOS and 4-aminoantipyrine into quinoneimine dye. The appearance of quinoneimine dye is measured spectrophotometrically at 555 nm and is proportional to the amount of choline released by ENPP2. Inhibition of ENPP2 will result in a decrease of the signal.
Compound IC50 values are determined in a hENPP2 (UniProtKB/SwissProt Sequence ref Q13822) biochemical assay using LPC as substrate.
The enzyme is diluted in 50 mM Tris-HCl pH 8.5, 500 mM NaCl, 5 mM KCl, 10 mM CaCl2, 0.1% fatty acid free BSA in a total volume of 10 μL. the reaction is started by the addition of 10 μL of 150 μM LPC (palmitoyl 16:0) diluted in the same buffer as described above and the mixture is incubated at 37° C. for 30 min. The reaction is terminated and choline quantified by the addition of a 25 μL of a mixture containing 0.6 U/mL of choline oxidase, 0.6 U/mL of peroxydase, 1.8 mM TOOS, 1.2 mM amino-antipyrine, 20 mM EGTA (stop-developer solution) diluted in the buffer described above. […] is read on the Envision after an incubation of 30 min at room temperature (Excitation 555 nm, excitation light=70%).

[2] = molecular target: T1, hENPP2; experiment: fluorescent hENPP2 biochemical assay, FS-3 as substrate; conditions: read-out: FS3-IC50
Description: Compound IC50 values are determined in a fluorescent hENPP2 (UniProtKB/SwissProt Sequence ref Q13822) biochemical assay using the fluorogenic autotaxin substrate FS-3 as substrate. FS-3 is a doubly labeled analog of LPC wherein the fluorophore is quenched through intramolecular energy transfer. Without hENPP2, the emission of the probe is quenched. If the substrate is hydrolyzed by hENPP2, the emission of the probe is not quenched anymore resulting in a fluorescence increase.
The enzyme is diluted in 50 mM Tris-HCl pH 8.0, 250 mM NaCl, 5 mM KCl, 1 mM MgCl2, 1 mM CaCl2, 0.1% fatty acid free BSA in a total volume of 20 μL. Enzyme mixture is added to compounds and the resulting mixture is incubated for 30 min at room temperature under shaking. The reaction is started by the addition of 20 μL of 0.75 μM FS-3 diluted in the same buffer as described above and the mixture is incubated at 30° C. for 30 min. Fluorescence is read on the Envision (Excitation 485 nm, emission 520 nm).

IC50 [1]	IC50 [2]	Structure (SMILES)
> 1000 nM	0.01 to 100 nM	CCc1nc2ccc(C3CCN(S(C)(=O)=O)CC3)cn2c1N(C)c1nc(-c2ccc(F)cc2)c(C)s1 [Compound 101, N-(2-ethyl-6-(1-(methylsulfonyl)piperidin-4-yl)imidazo [1,2-a]pyridin-3-yl)-4-(4-fluorophenyl)-N,5-dimethylthiazol-2-amine]
100 to 500 nM	0.01 to 100 nM	CCc1nc2ccc(C3CCN(CC4COC(=O)O4)CC3)cn2c1N(C)c1nc(-c2ccc(F)cc2)cs1 (stereo not drawn) [Compound 118, 4-((4-(2-ethyl-3-((4-(4-fluorophenyl)thiazol-2-yl)(methyl)amino)imidazo[1,2-a]pyridin-6-yl)piperidin-1-yl)methyl)-1,3-dioxolan-2-one]
–	0.01 to 100 nM	CCc1nc2ccc(N3CCNCC3)cn2c1N(C)c1nc(-c2ccc(F)cc2)cs1 [Gen-10-e]
> 1000 nM	0.01 to 100 nM	CCc1nc2ccc(C3CCN(CC(=O)N(C)C)CC3)cn2c1N(C)c1nc(-c2ccc(F)cc2)c(CO)s1 [Compound 157, 2-(4-(2-ethyl-3-((4-(4-fluorophenyl)-5-(hydroxymethyl)thiazol-2-yl)(methyl)amino)imidazo[1,2-a]pyridin-6-yl)piperidin-1-yl)-N,N-dimethylacetamide]
100 to 500 nM	0.01 to 100 nM	CCc1nc2ccc(C3CCN(CC(=O)N4CC(O)C4)CC3)cn2c1N(C)c1nc(-c2ccc(F)cc2C#N)c(C)s1 [Compound 172, 2-(2-((2-ethyl-6-(1-(2-(3-hydroxyazetidin-1-yl)-2-oxoethyl)piperidin-4-yl)imidazo[1,2-a]pyridin-3-yl)(methyl)amino)-5-methylthiazol-4-yl)-5-fluorobenzonitrile]
100 to 500 nM	0.01 to 100 nM	CCc1nc2ccc(N3CCN(CC(=O)N4CC(O)C4)CC3)cn2c1N(C)c1nc(-c2ccc(F)cc2)cs1 [Compound 24, 2-(4-(2-ethyl-3-((4-(4-fluorophenyl)thiazol-2-yl)(methyl)amino)imidazo[1,2-a]pyridin-6-yl)piperazin-1-yl)-1-(3-hydroxyazetidin-1-yl)ethanone]
–	0.01 to 100 nM	CCc1nc2ccc(C3CCN(S(C)(=O)=O)CC3)cn2c1N(C)c1nc(-c2ccc(F)cc2)c(Br)s1 [Compound 135, 5-bromo-N-(2-ethyl-6-(1-(methylsulfonyl)piperidin-4-yl)imidazo [1,2-a]pyridin-3-yl)-4-(4-fluorophenyl)-N-methylthiazol-2-amine]
–	0.01 to 100 nM	CCc1nc2ccc(N3CCN(C(=O)OC(C)(C)C)CC3)cn2c1N(C)c1nc(-c2ccc(Cl)cc2)cs1 [Compound 234, tert-butyl 4-(3-((4-(4-chlorophenyl)thiazol-2-yl)(methyl)amino)-2-ethylimidazo[1,2-a]pyridin-6-yl)piperazine-1-carboxylate]
–	0.01 to 100 nM	CCc1nc2ccc(C3=NC(C)CO3)cn2c1N(C)c1nc(-c2ccc(F)cc2)cs1 (stereo not drawn) [Compound 237, N-(2-ethyl-6-(4-methyl-4,5-dihydrooxazol-2-yl)imidazo[1,2-a]pyridin-3-yl)-4-(4-fluorophenyl)-N-methylthiazol-2-amine]
–	0.01 to 100 nM	CCc1nc2ccc(C3=CCN(C(=O)OC(C)(C)C)CC3)cn2c1N(C)c1nc(-c2ccc(Cl)cc2)cs1 [Compound 230, tert-butyl 4-(3-((4-(4-chlorophenyl)thiazol-2-yl)(methyl)amino)-2-ethylimidazo[1,2-a]pyridin-6-yl)-5,6-dihydropyridine-1(2H)-carboxylate]
–	0.01 to 100 nM	CCc1nc2ccc(C3=CCSCC3)cn2c1N(C)c1nc(-c2ccc(Cl)cc2)cs1 [Compound 231, 4-(4-chlorophenyl)-N-(6-(3,6-dihydro-2H-thiopyran-4-yl)-2-ethylimidazo[1,2-a]pyridin-3-yl)-N-methylthiazol-2-amine]
–	0.01 to 100 nM	CCc1nc2ccc(N3CCC(F)(F)CC3)cn2c1N(C)c1nc(-c2ccc(F)cc2)cs1 [Compound 232, N-(6-(4,4-difluoropiperidin-1-yl)-2-ethylimidazo[1,2-a]pyridin-3-yl)-4-(4-fluorophenyl)-N-methylthiazol-2-amine]
–	0.01 to 100 nM	CCc1nc2ccc(C3CCN(CC4CCCCC4)CC3)cn2c1N(C)c1nc(-c2ccc(F)cc2)cs1 [Compound 235, N-(6-(1-(cyclohexylmethyl)piperidin-4-yl)-2-ethylimidazo[1,2-a]pyridin-3-yl)-4-(4-fluorophenyl)-N-methylthiazol-2-amine]
100 to 500 nM	–	CCc1nc2ccc(N3CCN(CC(=O)N4CC(CO)C4)CC3)cn2c1N(C)c1nc(-c2ccc(F)cc2)cs1 [Compound 34, 2-(4-(2-ethyl-3-((4-(4-fluorophenyl)thiazol-2-yl)(methyl)amino)imidazo[1,2-a]pyridin-6-yl)piperazin-1-yl)-1-(3-(hydroxymethyl)azetidin-1-yl)ethanone]
100 to 500 nM	–	CCc1nc2ccc(N3CCN(CC(=O)N4CCOCC4)CC3)cn2c1N(C)c1nc(-c2ccc(F)cc2)cs1 [Compound 32, 2-(4-(2-ethyl-3-((4-(4-fluorophenyl)thiazol-2-yl)(methyl)amino)imidazo[1,2-a]pyridin-6-yl)piperazin-1-yl)-1-morpholinoethanone]
500 to 1000 nM	–	CCc1nc2ccc(C3CCN(CC(=O)N4CCCC4)CC3)cn2c1N(C)c1nc(-c2ccc(F)cc2)c(CO)s1 [Compound 151, 2-(4-(2-ethyl-3-((4-(4-fluorophenyl)-5-(hydroxymethyl)thiazol-2-yl)(methyl)amino)imidazo[1,2-a]pyridin-6-yl)piperidin-1-yl)-1-(pyrrolidin-1-yl)ethanone]
–	100 to 500 nM	CCc1nc2ccc(C3=NC(C(=O)O)CO3)cn2c1N(C)c1nc(-c2ccc(F)cc2)cs1 (stereo not drawn) [Compound 238, 2-(2-ethyl-3-((4-(4-fluorophenyl)thiazol-2-yl)(methyl)amino)imidazo[1,2-a]pyridin-6-yl)-4,5-dihydro-oxazole-4-carboxylic acid]
–	100 to 500 nM	CCc1nc2ccc(C3=NCC(C)O3)cn2c1N(C)c1nc(-c2ccc(F)cc2)cs1 (stereo not drawn) [Compound 236, N-(2-ethyl-6-(5-methyl-4,5-dihydrooxazol-2-yl)imidazo[1,2-a]pyridin-3-yl)-4-(4-fluorophenyl)-N-methylthiazol-2-amine]
100 to 500 nM	–	CCc1nc2ccc(C3CCN(CC(=O)N4CCC(CO)C4)CC3)cn2c1N(C)c1nc(-c2ccc(F)cc2)cs1 (stereo not drawn) [Compound 117, 2-(4-(2-ethyl-3-((4-(4-fluorophenyl)thiazol-2-yl)(methyl)amino)imidazo[1,2-a]pyridin-6-yl)piperidin-1-yl)-1-(3-(hydroxymethyl)pyrrolidin-1-yl)ethanone]
> 1000 nM	–	CCc1nc2ccc(N3CCN(C(=O)C4CCN(C(=O)OC(C)(C)C)C4)CC3)cn2c1N(C)c1nc(-c2ccc(F)cc2)cs1 (stereo not drawn) [Compound 45, tert-butyl 3-(4-(2-ethyl-3-((4-(4-fluorophenyl)thiazol-2-yl)(methyl)amino)imidazo[1,2-a]pyridin-6-yl)piperazine-1-carbonyl)pyrrolidine-1-carboxylate]
> 1000 nM	–	CCc1nc2ccc(C3CCN(CC4CN(C)C(=O)O4)CC3)cn2c1N(C)c1nc(-c2ccc(F)cc2)cs1 (stereo not drawn) [Compound 195, 5-((4-(2-ethyl-3-((4-(4-fluorophenyl)thiazol-2-yl)(methyl)amino)imidazo[1,2-a]pyridin-6-yl)piperidin-1-yl)methyl)-3-methyloxazolidin-2-one]
0.01 to 100 nM	–	CCc1nc2ccc(N3CCN(CC(=O)NC)CC3)cn2c1N(C)c1nc(-c2ccc(F)cc2C#N)cs1 [Compound 169, 2-(4-(3-((4-(2-cyano-4-fluorophenyl)thiazol-2-yl)(methyl)amino)-2-ethylimidazo[1,2-a]pyridin-6-yl)piperazin-1-yl)-N-methylacetamide]
0.01 to 100 nM	–	CCc1nc2ccc(N3CCN(CC(=O)N4CC(CO)C4)CC3)cn2c1N(C)c1nc(-c2ccc(F)cc2)c(C#N)s1 [Compound 139, 2-((2-ethyl-6-(4-(2-(3-(hydroxymethyl)azetidin-1-yl)-2-oxoethyl)piperazin-1-yl)imidazo[1,2-a]pyridin-3-yl)(methyl)amino)-4-(4-fluorophenyl) thiazole-5-carbonitrile]

Structure (SMILES)	IC50 [1]	IC50 [2]
CCc1nc2ccc(C3CCN(Cc4ccccc4)CC3)cn2c1N(C)c1nc(-c2ccc(F)cc2)cs1 [Compound 217, [6-(1-Benzyl-piperidin-4-yl)-2-ethyl-imidazo[1,2-a]pyridin-3-yl]-[4-(4-fluoro-phenyl)-thiazol-2-yl]-methyl-amine]	> 1000 nM	0.01 to 100 nM
